{"source": "patent US20070207228A1", "about": "“Composition for Regulating the Trophism of Hair Follicles and the Cutaneous Production of Sebum and Use Thereof in Androgenic Alopecia” (priority 2004, published 2007)", "system": "5-α-reductase", "assay": "in vivo inhibiting activity of 5-α-reductase: plasmatic DHT concentration after oral administration", "parameters": "species or system Sprague-Dawley rats", "procedure": "Determination in vivo of the inhibiting activity of 5-α-reductase of an extract of Boehmeria nippononivea.\nFor the in-vivo study of the inhibition of 5-α-reductase, Sprague-Dawley (Charles River Italia) male adult rats were used having a body weight of 200-250 g.\nThe animals were stalled under standard conditions: at a temperature of 22/23° C., with 65% relative humidity, by exposing them to light cycles of 12 h light/12 h darkness.\nA standard diet in pellets (standard diet, Charles River) was administered to the rats, together with water ad libitum.\nSamples were taken from the rear-orbital plexus, immediately before the pharmacological treatment (T0) and then at 3, 6 and 8 hours after administration.\nThe administration of the substance being tested was effected orally.\nFurthermore, contemporarily with each sampling of the treated animals, samples were also taken from non-treated animals to determine the basal analyte level.\nPlasma obtained from the whole blood, treated with EDTA after centrifugation, was preserved at −20° C. until analysis.\nThe plasmatic concentrations of DHT (dihydrotestosterone) were determined by a commercial kit (DSL, Chematil, Angri, SA) after extraction of the samples.\nAll the samples of an experimental set were analyzed together to reduce the inter analytical variability.", "note": "Several values for one entry are separate records, joined by “and”; a condition that tells them apart may be missing. Identical values can stand only once.", "data": [{"smiles": "CC(C)(C)NC(=O)[C@H]1CC[C@H]2[C@@H]3CC[C@H]4NC(=O)C=C[C@]4(C)[C@H]3CC[C@]12C", "note": "[Finasteride]", "values": [{"measurement": "plasmatic DHT concentration, individual animals", "setting": "Finasteride 1 mg oral, 3 hrs", "value": "298.09 and 505.28 and 300.00 and 569.62 and 404.63 and 530.00"}, {"measurement": "plasmatic DHT concentration, average", "setting": "Finasteride 1 mg oral, 3 hrs, n = 6", "value": 434.603}, {"measurement": "plasmatic DHT concentration, individual animals", "setting": "Finasteride 1 mg oral, 6 hrs", "value": "404.13 and 565.00 and 379.59 and 592.06 and 148.51 and 420.07"}, {"measurement": "plasmatic DHT concentration, average", "setting": "Finasteride 1 mg oral, 6 hrs, n = 6", "value": 418.227}, {"measurement": "plasmatic DHT concentration, individual animals", "setting": "Finasteride 1 mg oral, 8 hrs", "value": "706.70 and 140.06 and 503.90 and 530.07 and 173.11 and 110.00"}, {"measurement": "plasmatic DHT concentration, average", "setting": "Finasteride 1 mg oral, 8 hrs, n = 6", "value": 360.640}, {"measurement": "plasmatic DHT concentration, individual animals", "setting": "Finasteride 5 mg oral, 3 hrs", "value": "217.10 and 618.58 and 151.18 and 640.97 and 924.20 and 569.38"}, {"measurement": "plasmatic DHT concentration, average", "setting": "Finasteride 5 mg oral, 3 hrs, n = 6", "value": 520.235}, {"measurement": "plasmatic DHT concentration, individual animals", "setting": "Finasteride 5 mg oral, 6 hrs", "value": "205.21 and 103.62 and 54.35 and 60.67 and 49.67 and 128.25 and 176.92 and 81.23"}, {"measurement": "plasmatic DHT concentration, average", "setting": "Finasteride 5 mg oral, 6 hrs, n = 8", "value": 107.490}, {"measurement": "plasmatic DHT concentration, individual animals", "setting": "Finasteride 5 mg oral, 8 hrs", "value": "201.56 and 108.76 and 745.40 and 576.60 and 250.90 and 300.12"}, {"measurement": "plasmatic DHT concentration, average", "setting": "Finasteride 5 mg oral, 8 hrs, n = 6", "value": 363.890}, {"measurement": "trend of the DHT concentration following administration", "setting": "oral, 3, 6 and 8 hours after administration", "value": "8 hours after treatment, increases returning to the basal levels"}]}]}
